Experimental data as given in paper PMC8624133, “10th Trends in Medical Mycology Held on 8 to 11 October 2021, Aberdeen, Scotland, Organized by the European Confederation of Medical Mycology (ECMM)” (Journal of Fungi, 2021).
Converted amounts (≈) assume the structure as drawn.

Legend:
[1] = tested on: clinical dermatophyte isolates; assay: Inhibition of dermatophyte biofilm formation; type: cell-based
Description: Materials and Methods: The study population consisted of 50 dermatophyte isolates that were collected from 2019 to 2020 from patients referred to the two mycology laboratory of Shiraz, Iran. The isolates were identified by ITS gene region sequencing. The suspension (equivalent to 0.5 McFarland) of the isolates was used to evaluate the ability of the isolates to form biofilms and also the effect of itraconazole, terbinafine and griseofulvin at concentrations of 2–32 μg/mL on inhibiting biofilm formation. Two optical microscope and a scanning electron microscope were used to study the microscopic structure of biofilms formed on the surface of 96-well plate wells.

[2] = tested on: McLDM strains; assay: EUCAST MIC, S. cerevisiae overexpressing M. circinelloides LDM, resistance phenotypes; type: cell-based, Saccharomyces cerevisiae
[3] = tested on: three Rhizopus species; assay: MIC and fungicidal activity; type: cell-based, Rhizopus oryzae, R. microsporus, R. stolonifer; conditions: for MIC: 0.08 µM to 20 µM tested
Description: (§1) Materials & Methods: An initial screening of the 400 compounds (5 µM) in this collection was performed with the Rhizopus oryzae, according to the EUCAST protocol. Compounds with activity against R. oryzae have also been tested against other mucormycosis etiological agents (Rhizopus microsporus e Rhizopus stolonifer) at concentrations ranging from 0.08 µM to 20 µM.

[4] = tested on: Rhizopus oryzae; assay: Pandemic Box screening, EUCAST protocol; type: cell-based; conditions: for inhibition of R. oryzae growth: 5 µM
Description: as §1

[5] = tested on: R. delemar; assay: Murine mucormycosis, immunosuppressed mice infected intratracheally; type: in vivo, ICR mice; conditions: n = 20/arm
Description: (§2) Methods & Materials: In vitro susceptibility was conducted by the CLSI M38 method using a clinical isolate of Rhizopus delemar (a common cause of mucormycosis). ICR mice were immunosuppressed with cyclophosphamide and cortisone acetate on days −2, +3, and +8, relative to infection with intratracheally instilled R. delemar. […] Mice survival through Day +21 served as the primary endpoint.

[6] = tested on: R. delemar 99–880; assay: CLSI M38 in vitro susceptibility; type: cell-based, Rhizopus delemar
Description: as §2

[7] = tested on: Exophiala phaeomuriformis; assay: MIC, CLSI M27-A3; type: cell-based; conditions: read-out: MIC values
Description: Materials & Methods: The aviation kerosone samples came from an aviation company in Porto Alegre, state of Rio Grande do Sul, Brazil. The fungi isolation was carried out using the modified ASTM D6974-09 Standard. In this procedure, 500 mL kerosene samples were filtered, in triplicate, under aseptic conditions, under vacuum, using a 0.22 μm membrane (Millipore). After filtering, the membranes were deposited in potato dextrose agar culture medium. The plates were incubated in an oven at 30 °C for seven days. After this period, the colonies were isolated in new culture media for purification of the isolates. Molecular identification was performed through the sequencing of ITS DNA regions. The profile of sensitivity to clinical antifungals was assessed following protocols M27-A3 of the Clinical and Laboratory Standards Institute (CLSI).

[8] = tested on: refractory fungal disease; assay: FURI Phase 3 open-label study, refractory subset; type: in vivo, human; conditions: 44 refractory patients
Text: Methods: FURI patients were eligible for enrollment if they have proven or probable, severe mucocutaneous candidiasis, invasive candidiasis or invasive aspergillosis and documented evidence of failure, intolerance, or toxicity related to a currently approved standard-of-care antifungal treatment or could not receive approved oral antifungal options (e.g., susceptibility of the organism) and continued IV antifungal therapy was clinically undesirable or unfeasible.

[9] = tested on: invasive and mucocutaneous fungal infections; assay: FURI and CARES open-label studies combined; type: in vivo, human; conditions: 84 patients
Text: Methods: FURI subjects were eligible for enrollment if they had proven or probable severe mucocutaneous candidiasis, invasive candidiasis, invasive aspergillosis, or other fungal diseases with evidence of treatment failure, intolerance, or toxicity related to a currently approved standard-of-care antifungal treatment or if they were unable to receive an approved oral antifungal option (e.g., susceptibility of the organism) and a continued IV antifungal therapy was clinically undesirable or unfeasible.

[10] = tested on: serious or life-threatening pulmonary aspergillosis; assay: Special Needs program: inhaled opelconazole in patients; type: in vivo, human
Text: Opelconazole has been supplied to patients with serious or life-threatening pulmonary aspergillosis who have not responded to available mold-active therapies under a Special Needs program regulated in the United Kingdom by the Medicines and Healthcare products Regulatory Agency. Successful outcomes in the first two patients who developed invasive pulmonary aspergillosis due to infections with A. fumigatus complex shortly after lung transplantation have been reported [Pagani 2020].

[11] = following inhaled delivery, ref Colley T et al., 2017, 2019; cited from earlier work
Text: A potent, effective inhaled anti-fungal agent with prolonged lung tissue residence and minimal systemic […] would be a valuable adjunct to current therapeutic options. To date, treatment using inhaled antifungal agents has been limited to repurposing available systemic medicines. Opelconazole is a novel triazole antifungal agent which was specifically designed for inhaled use and which is being developed as an inhaled treatment for pulmonary fungal disease.

[12] = tested on: Trichophyton spp.; assay: Agar-based screening method; type: cell-based; conditions: 0.5 McF, 5 days, 30 °C
Description: Inter-experimental variation was evaluated by testing 10 isolates on three different days. Single-centre validation: After determining the optimal conditions for the agar screening method, 112 molecularly identified Trichophyton spp. clinical isolates were tested.

[13] = tested on: C. tropicalis; type: cell-based, Candida tropicalis
[14] = tested on: C. parapsilosis; type: cell-based, Candida parapsilosis
[15] = tested on: C. albicans; type: cell-based, Candida albicans
[16] = tested on: C. krusei; type: cell-based, Candida krusei
[17] = tested on: Other species of Candida; type: cell-based, Candida spp.
[18] = tested on: C. glabrata; type: cell-based, Candida glabrata
[19] = tested on: Sporothrix brasiliensis; assay: Murine subcutaneous sporotrichosis model; type: in vivo, Balb/c mice
Description: Materials & Methods: 50 Balb/c mice, male, five to seven-week-old, were subcutaneous infected (left footpad) by a clinical isolate of S. brasiliensis (5.4 × 10^7 yeast/mice). Treatments started seven days post-inoculation (p.i) in all five groups (10 mice/each): G1 control group (placebo—receiving just the diluent of the drugs), G2 treatment group (itraconazole—ITZ 50 mg/kg); G3 to G5 DD treatment groups, 1, 5 and 10 mg/kg, respectively. All mice were treated once a day by oral gavage, for 30 consecutive days. Physical conditions and behavior were daily evaluated, and individual weight was weekly determined. At the 32nd day p.i. (48 h after the end of the treatments) animals were euthanasied and lung, liver, brain, kidneys, testicle and footpad were recovered aseptically and homogenized to mycological analysis. Fungal burden in each organ was measured by quantitatively counting colony-forming units (CFU). The determination of colony forming units (CFU)/gram of tissue (g) of S. brasiliensis in internal organs of groups were compared by non-parametric tests using Kruskal-Wallis combined with Wilcoxon. The weight loss assay was calculated considering the percentage of loss and/or increase between the value corresponding to the fungal inoculation day and to the end of the treatment.

[20] = tested on: A. fumigatus (resistant to posaconazole strain v79-63); assay: Neutropenic animal model of invasive pulmonary aspergillosis; type: in vivo, CD-1 mice
[21] = 11 treated patients and 1 on prophylaxis

## COC1=CC(=O)C[C@@H](C)[C@]12Oc1c(Cl)c(OC)cc(OC)c1C2=O [griseofluvin, griseofulvin]
[1]; inhibition of biofilm formation, read-out: mean concentrations of IC50
  IC50: 3.18 µg/mL (≈ 9.01 µM)
[1]; tested at 2–32 μg/mL
  samples with IC50 in concentration <2: 66%

## CC(C)(C)C(O)C(Oc1ccc(Cl)cc1)n1cncn1 (stereo not shown) [TDM, triadimenol]
[2]
  resistance characteristics: same resistance characteristics as FLC

## CCCCC(CC)CNC(=N)NC(=N)NCCCCCCNC(=N)NC(=N)NCC(CC)CCCC (stereo not shown) [MMV396785, Alexidine]
[3]
  fungicidal activity: 10 µM
[3]; Rhizopus
  MIC: 0.63 to 1.25 µM (≈ 0.321 to 0.636 µg/mL)
[4]; Rhizopus arrhizus, read-out: inhibition of R. oryzae growth
  inhibition at 5 µM: > 50%

## CC(C)[C@@H](C)[C@@]1(C)CC[C@]2(C)[C@H]3CC[C@@H]4[C@@]5(COC[C@@]4(C)[C@@H](OC[C@](C)(N)C(C)(C)C)[C@H](n4ncnc4-c4ccncc4)C5)C3=CC[C@@]2(C)[C@@H]1C(=O)O [IBREXA, Ibrexafungerp]
[5]; through Day +21, placebo 0
  % Survival: 35%
[5]; treatment from 24 h post infection, IBREXA 30 mg/kg po BID 7 d, LAMB 10 mg/kg iv 4 d, POSA 30 mg/kg po QD 7 d, placebo 8
  Median Survival: 15 days
[6]
  minimum effective concentration (MEC): > 8 µg/mL

## CC(=O)N1CCN(c2ccc(OCC3COC(Cn4ccnc4)(c4ccc(Cl)cc4Cl)O3)cc2)CC1 (stereo not shown) [ketoconazole]
[7]
  MIC: 125 µg/mL (≈ 235 µM)

## c1cc(CN2CCCNCCNCCCNCC2)ccc1CN1CCCNCCNCCCNCC1 [MMV1580502]
[4]
  inhibition of R. oryzae growth: more than 50%

## COc1cc(NS(=O)(=O)c2ccc(C)cc2)c2ncccc2c1 [MMV098836]
[4]
  inhibition of R. oryzae growth: more than 50%

## Cc1cccc(C)c1C(=O)Nc1nc(-c2ccccn2)cc2ccccc12 [MMV1581558]
[4]
  inhibition of R. oryzae growth: more than 50%

## Oc1cccc(C(Nc2nccs2)c2ccc3cccnc3c2O)c1 (stereo not shown) [MMV642550]
[4]
  inhibition of R. oryzae growth: more than 50%

## CCc1nc(N)nc(N)c1C#CC(C)c1cc(OC)cc(-c2ccncc2)c1 (stereo not shown) [MMV1580844]
[3]
  fungicidal activity: did not show fungicidal activity
  MIC: 0.08 µM (≈ 0.0299 µg/mL)
[4]
  inhibition of R. oryzae growth: more than 50%

## CC(C)[C@@H](C)[C@@]1(C)CC[C@]2(C)[C@H]3CC[C@@H]4[C@@]5(COC[C@@]4(C)[C@@H](OC[C@](C)(N)C(C)(C)C)[C@H](n4ncnc4-c4ccncc4)C5)C3=CC[C@@]2(C)[C@@H]1C(=O)O [ibrexafungerp, Ibrexafungerp]
[8]
  progression of disease: 6.8%
  stable disease: 22.7%
[8]; oral, DRC-determined
  complete response, partial response or clinical improvement: 59.1%
[9]
  progression of disease: 5.9%
  stable disease: 27.1%
[9]; oral, DRC-determined
  complete response, partial response and clinical improvement: 65.1%

## Cc1cc(N2CCN(c3ccc(C(=O)Nc4ccc(F)cc4)cc3)CC2)ccc1OC[C@@H]1CO[C@@](Cn2cncn2)(c2ccc(F)cc2F)C1 [opelconazole]
[10]; [21]
  drug-drug interactions: no drug-drug interactions reported
  tolerability: generally well tolerated
[10]; patients who received opelconazole as treatment after no response to mold-active therapies, number of patients
  Favorable responses at 3 months: 9 out of the 11
[11]
  local concentrations in the lung: high
  systemic bioavailability: minimal

## CCC(C)(C)c1ccc(CC(C)CN2C[C@@H](C)O[C@@H](C)C2)cc1 (stereo partly shown) [amorolfine]
[12]
  optimal agar concentration preventing growth of WT isolates: 0.5 mg/L

## Oc1c(C(Nc2nc3ccccc3s2)c2ccc(OC(F)F)cc2)ccc2cccnc12 (stereo not shown) [MMV019724]
[4]
  inhibition of R. oryzae growth: more than 50%

## Nc1nc(=O)[nH]cc1F [5-FC, 5-flucytosine]
[13]
  I (intermediate) isolates, n (%): 0 (0%)
  R (resistant) isolates, n (%): 0 (0%)
  S (sensitive) isolates, n (%): 57 (100%)
[14]
  I (intermediate) isolates, n (%): 1 (0.6%)
  R (resistant) isolates, n (%): 2 (01.2%)
  S (sensitive) isolates, n (%): 170 (98.3%)
[15]
  I (intermediate) isolates, n (%): 1 (0.5%)
  R (resistant) isolates, n (%): 2 (1%)
  S (sensitive) isolates, n (%): 199 (98.5%)
[16]
  I (intermediate) isolates, n (%): 3 (42.9%)
  R (resistant) isolates, n (%): 3 (42.9%)
  S (sensitive) isolates, n (%): 1 (14.3%)
[17]
  I (intermediate) isolates, n (%): 0 (0%)
  R (resistant) isolates, n (%): 0 (0%)
  S (sensitive) isolates, n (%): 26 (100%)
[18]
  I (intermediate) isolates, n (%): 0 (0%)
  R (resistant) isolates, n (%): 0 (0%)
  S (sensitive) isolates, n (%): 71 (100%)

## c1ccc([Se][Se]c2ccccc2)cc1 [DD, Diphenyl diselenide]
[19]; DD 5 mg/kg
  weight loss during treatment vs control group: statistically higher rate of weight loss
[19]; oral gavage once a day, 30 days, ITZ 50 mg/kg, DD 1, 5 or 10 mg/kg
  fungal burden of internal organs vs placebo group: higher fungal burdens

B1: IL-18: Mouse cytokine IL-18 (protein, UniProt P70380 36-192, looked up)
Interleukin-18: NFGRLHCTTAVIRNINDQVLFVDKRQPVFEDMTDIDQSASEPQTRLIIYMYKDSEVRGLAVTLSVKDSKMSTLSCKNKIISFEEMDPPENIDDIQSDLIFFQKRVPGHNKMEFESSLYEGHFLACQKEDDAFKLILKKKDENGDKSVMFTLTNLHQS
[20]; mean ± SEM, 3 animals treated for 3 d, placebo 6.1 ± 0.08
  log10CFU/lung: 4.82 ± 0.44 log10CFU/lung
[20]; survival recorded until 15 d, IL-18 10 ng/mouse intranasally daily -2 d till +7 d, posaconazole 16 mg/kg/day, groups of 10, control 20%
  survival rates: 56%
